Values quoted from earlier work as cited in patent US20090047245A1, “Prognostic chronic hepatitis C biomarkers” (priority 2007, published 2009).

System: HCV

NC(=O)c1ncn([C@@H]2O[C@H](CO)[C@@H](O)[C@H]2O)n1 [ribavirin]
increase of the sustained response rate (ribavirin added to interferon): two- to three-fold
effect on HCV (ribavirin by itself): little effect on HCV
